Drawing on patent US7262212B2, “2,3-dihydro-6-nitroimidazo[2,1-b]oxazoles” (Otsuka Pharmaceutical Co., Ltd., priority 2002, dated 2007), this text covers melting point for 70 compounds.

Turning to `CN(CC1(C)Cn2cc([N+](=O)[O-])nc2O1)C(=O)OCc1ccccc1` (stereo not shown), the melting point was 150.3 to 151.6 °C.

`C[C@]1(COC(=O)N2CCN(Cc3ccc(Cl)cc3)CC2)Cn2cc([N+](=O)[O-])nc2O1` registered a melting point of 161 to 163 °C.

`C[C@]1(CN2CCC(N3CCN(Cc4ccc(Cl)cc4)CC3)CC2)Cn2cc([N+](=O)[O-])nc2O1` came in with a melting point of 148 to 149 °C.

For the compound `CC1(CCCN2CCN(C(C)(C)C)C(=O)C2)Cn2cc([N+](=O)[O-])nc2O1` (stereo not shown), the melting point is 147 to 149 °C (dec.).

Take `CC(C)(C)OC(=O)N1CCN(CCC2(C)Cn3cc([N+](=O)[O-])nc3O2)CC1` (stereo not shown): the melting point is 190 to 191 °C (dec.).

For the compound `CC(C)(C)OC(=O)N1CCC(c2ccc(OCC3(C)Cn4cc([N+](=O)[O-])nc4O3)cc2)CC1` (stereo not shown), the melting point is 207.8 to 209.1 °C.

The compound `C[C@]1(CN2CCC(N3CCN(c4ccc(OC(F)(F)F)cc4)CC3)CC2)Cn2cc([N+](=O)[O-])nc2O1` displayed a melting point of 193 to 194 °C.

`O=C(NCc1ccc(C(F)(F)F)cc1)N1CCC2(CC1)Cn1cc([N+](=O)[O-])nc1O2` yielded a melting point of 215 to 217 °C.

Turning to `CC1(Cn2nc(-c3ccc(C(F)(F)F)cc3)oc2=O)Cn2cc([N+](=O)[O-])nc2O1` (stereo not shown), the melting point was 230 to 231 °C.

Turning to `CC(C)n1c(=O)n(CC2(C)Cn3cc([N+](=O)[O-])nc3O2)c2cc(Cl)ccc21` (stereo not shown), the melting point was in the range of 240.5 to 244.8 °C.

As for `CC1(CCN2CCN(Cc3ccc(C(F)(F)F)cc3)CC2)Cn2cc([N+](=O)[O-])nc2O1` (stereo not shown), the melting point was in the range of 148 to 149 °C.

For `CC(C)(C)OC(=O)N1CCC(c2ccc(OC[C@@]3(C)Cn4cc([N+](=O)[O-])nc4O3)cc2)CC1`, the melting point is 227.5 to 228.3 °C (dec.).

`COc1ccc(C(=O)N2CCN(CC3(C)Cn4cc([N+](=O)[O-])nc4O3)CC2)cc1` (stereo not shown) had a melting point of 135 to 137 °C.

In turn, `CNC(C1CCN(c2ccc(Cl)cc2)CC1)[C@]1(C)Cn2cc([N+](=O)[O-])nc2O1` (stereo partly shown) showed a melting point of 179.2 to 182.1 °C.

For `CC(C)(C)OC(=O)N1CCN(c2ccc(OCC3(C)Cn4cc([N+](=O)[O-])nc4O3)cc2)CC1` (stereo not shown), the melting point was in the range of 212 to 214.5 °C.

Compound `CC1(CCN2CCN(C(C)(C)C)C(=O)C2)Cn2cc([N+](=O)[O-])nc2O1` (stereo not shown) displayed a melting point of 153 to 154 °C.

`C[C@]1(CN2CCN(Nc3ccc(C(F)(F)F)cc3)CC2)Cn2cc([N+](=O)[O-])nc2O1` came in with a melting point of 192.1 to 195.3 °C.

For the compound `CC1(COc2ccc(N3CCC(Oc4ccc(Cl)cc4)CC3)cc2)Cn2cc([N+](=O)[O-])nc2O1` (stereo not shown), the melting point lay in the range of 151 to 152.3 °C.

Regarding `CN1C(=O)CCc2cc(COC(=O)N3CCN(C[C@@]4(C)Cn5cc([N+](=O)[O-])nc5O4)CC3)ccc21`, the melting point fell in the range of 189 to 190 °C.

Turning to `O=C(CN1CCC2(CC1)Cn1cc([N+](=O)[O-])nc1O2)N1CCN(Cc2ccc(C(F)(F)F)cc2)CC1`, the melting point is 195 to 197 °C (dec.).

`CN(CC1(C)Cn2cc([N+](=O)[O-])nc2O1)C(=O)OCc1ccc(F)cc1` (stereo not shown) gave a melting point of 168.9 to 169.9 °C.

The compound `C[C@]1(CN2CCN(N=Cc3cc4cc(Cl)ccc4o3)CC2)Cn2cc([N+](=O)[O-])nc2O1` came in with a melting point of 213.8 to 215.7 °C.

In the case of `C[C@]1(CN2CCC(NC(=O)OCc3ccc(OC(F)(F)F)cc3)CC2)Cn2cc([N+](=O)[O-])nc2O1`, the melting point lay in the range of 156.2 to 158.5 °C.

In turn, `C[C@]1(COc2cccc(N3CCN(C(=O)OCc4ccc(OC(F)(F)F)cc4)CC3)c2)Cn2cc([N+](=O)[O-])nc2O1` yielded a melting point of 136.5 to 138 °C.

`CCOC(=O)N1CCN(C(=O)c2ccc(OC[C@@]3(C)Cn4cc([N+](=O)[O-])nc4O3)cc2)CC1` registered a melting point of 132 to 135 °C.

Take `CC1(CCCN2CCN(Cc3ccc(-c4ccccc4)cc3)CC2)Cn2cc([N+](=O)[O-])nc2O1` (stereo not shown): the melting point was 176 to 178 °C.

Regarding `O=C(Nc1ccc(Cl)cc1)N1CCC2(CC1)Cn1cc([N+](=O)[O-])nc1O2`, the melting point was 249 to 252 °C (dec.).

Take `CC1(CN2CCN(C(=O)Nc3ccc(C(F)(F)F)cc3)CC2)Cn2cc([N+](=O)[O-])nc2O1` (stereo not shown): the melting point lay within 216 to 217 °C.

With `C[C@]1(CN2CCC(OCCCc3ccc(Cl)cc3)CC2)Cn2cc([N+](=O)[O-])nc2O1`, the melting point was in the range of 88.8 to 91.9 °C.

Turning to `CC1(CN2CCN(C(C)(C)C)C(=O)C2)Cn2cc([N+](=O)[O-])nc2O1` (stereo not shown), the melting point is 193 to 194 °C.

On to `CC1(COc2ccc(N3CCN(c4ccc(C(F)(F)F)cc4)CC3)cc2)Cn2cc([N+](=O)[O-])nc2O1` (stereo not shown), for which the melting point lay within 230.7 to 233.1 °C.

On to `CN(CCN1CCN(c2ccc(C(F)(F)F)cc2)CC1)C[C@@]1(C)Cn2cc([N+](=O)[O-])nc2O1`, for which the melting point was 148 to 150.5 °C.

On to `COc1ccc(CN2CCN(CC3(C)Cn4cc([N+](=O)[O-])nc4O3)C2=O)cc1` (stereo not shown), for which the melting point fell in the range of 158.6 to 160.5 °C.

For the compound `CC1(Cn2c(=O)n(C3CCN(C(=O)OCc4ccccc4)CC3)c3ccccc32)Cn2cc([N+](=O)[O-])nc2O1` (stereo not shown), the melting point was in the range of 181.7 to 184.6 °C.

The compound `CC1(CN2CCN(C(=O)COc3ccc(Cl)c(Cl)c3)CC2)Cn2cc([N+](=O)[O-])nc2O1` (stereo not shown) gave a melting point of 209 to 211 °C.

For the compound `CC1(CO)Cn2cc([N+](=O)[O-])nc2O1` (stereo not shown), the melting point was in the range of 166 to 168 °C.

With `CC1(COC(=O)Nc2cccc(F)c2)Cn2cc([N+](=O)[O-])nc2O1` (stereo not shown), the melting point lay within 168 to 169 °C.

Compound `CC1(CN2CCN(C(=O)Cc3ccc(Cl)cc3)CC2)Cn2cc([N+](=O)[O-])nc2O1` (stereo not shown) showed a melting point of 184 to 187 °C.

In the case of `O=C(Nc1ccc(C(F)(F)F)cc1)N1CCC2(CC1)Cn1cc([N+](=O)[O-])nc1O2`, the melting point was 215 to 217 °C.

In turn, `C[C@]1(CN2CCN(C3CCN(C(=O)c4ccc(OC(F)(F)F)cc4)CC3)CC2)Cn2cc([N+](=O)[O-])nc2O1` displayed a melting point of 133 to 134 °C.

`C[C@]1(CN2CCN(C(=O)OCc3ccc(OC(F)(F)F)cc3)CC2)Cn2cc([N+](=O)[O-])nc2O1`: the melting point was 139.5 to 140.5 °C.

`CN(CCN(C)c1ccc(C(F)(F)F)cc1)C[C@@]1(C)Cn2cc([N+](=O)[O-])nc2O1` registered a melting point of 135.5 to 137.5 °C.

As to `C[C@]1(CN2CCN(C(=O)CCCCc3ccc(Cl)cc3)CC2)Cn2cc([N+](=O)[O-])nc2O1`, the melting point fell in the range of 108 to 111 °C.

As to `CN(C)c1ccc2c(c1)n(CC1(C)Cn3cc([N+](=O)[O-])nc3O1)c(=O)n2C` (stereo not shown), the melting point is 264.6 to 268.3 °C (dec.).

Take `CC1(CN2CCN(C(=O)Nc3ccc(Cl)c(C(F)(F)F)c3)CC2)Cn2cc([N+](=O)[O-])nc2O1` (stereo not shown): the melting point lay in the range of 222 to 224 °C.

Consider `CC1(CN2CCN(C(=O)c3cccc(C(F)(F)F)c3)CC2)Cn2cc([N+](=O)[O-])nc2O1` (stereo not shown), for which the melting point is 122 to 124 °C.

In turn, `O=[N+]([O-])c1cn2c(n1)O[C@@H](CN1CCN(c3ccc(Cl)cc3)CC1)C2` had a melting point of 183 to 183.5 °C.

Consider `C[C@]1(CN2CCC(N3CCN(CC=Cc4ccc(OC(F)(F)F)cc4)CC3)CC2)Cn2cc([N+](=O)[O-])nc2O1`, for which the melting point is 174 to 175 °C.

In the case of `CC1(c2cccnc2)Cn2cc([N+](=O)[O-])nc2O1` (stereo not shown), the melting point lay in the range of 212 to 214 °C.

Take `CNC(C1CCN(c2ccc(C(F)(F)F)cc2)CC1)[C@]1(C)Cn2cc([N+](=O)[O-])nc2O1` (stereo partly shown): the melting point was 131.5 to 133.6 °C.

On to `C[C@]1(CN2CCN(S(=O)(=O)CCCCc3ccc(Cl)cc3)CC2)Cn2cc([N+](=O)[O-])nc2O1`, for which the melting point fell in the range of 176 to 177 °C.

The compound `C[C@]1(CN2CCN(C(=O)NC3CCCCC3)CC2)Cn2cc([N+](=O)[O-])nc2O1` yielded a melting point of 98 to 101 °C.

As to `C[C@]1(CN2CCN(C3CCN(C(=O)c4ccc(Cl)cc4)CC3)CC2)Cn2cc([N+](=O)[O-])nc2O1`, the melting point lay within 218 to 220 °C.

`O=C(OCc1ccc(C(F)(F)F)cc1)N1CCN(CC2Cn3cc([N+](=O)[O-])nc3O2)CC1` (stereo not shown) showed a melting point of 120 to 122 °C.

The compound `C[C@]1(CN2CCC(NC(=O)Nc3ccc(C(F)(F)F)cc3)CC2)Cn2cc([N+](=O)[O-])nc2O1` registered a melting point of 136.8 to 139.9 °C.

The compound `CC1(CN2CCN(Cc3ccc(Br)cc3)C2=O)Cn2cc([N+](=O)[O-])nc2O1` (stereo not shown) came in with a melting point of 205.7 to 208.1 °C.

In the case of `C[C@]1(CN2CCN(c3ccc(C(=O)O)cc3)CC2)Cn2cc([N+](=O)[O-])nc2O1`, the melting point is 248 to 252 °C.

`CN(C(=O)OCc1ccccc1)C1CCN(CC2(C)Cn3cc([N+](=O)[O-])nc3O2)CC1` (stereo not shown): the melting point lay within 138.7 to 139.2 °C.

Compound `C[C@]1(COc2ccc(C(=O)N3CCN(Cc4ccc(OC(F)(F)F)cc4)CC3)cc2)Cn2cc([N+](=O)[O-])nc2O1` gave a melting point of 155 to 156 °C.

`C[C@]1(COc2ccc(N3CCN(Cc4ccc(OC(F)(F)F)cc4)CC3)cc2)Cn2cc([N+](=O)[O-])nc2O1` registered a melting point of 213.5 to 217 °C.

In turn, `C[C@]1(CN2CCN(C(=O)CCCc3ccc(Cl)cc3)CC2)Cn2cc([N+](=O)[O-])nc2O1` registered a melting point of 146 to 147 °C.

Regarding `CC1(CN2CCN(C(=S)Nc3ccccc3)CC2)Cn2cc([N+](=O)[O-])nc2O1` (stereo not shown), the melting point was 164 to 165 °C (dec.).

For `CC1(CN2CCN(S(=O)(=O)Cc3ccc(Cl)cc3)CC2)Cn2cc([N+](=O)[O-])nc2O1` (stereo not shown), the melting point was in the range of 215 to 217 °C.

`CC(C)(C)OC(=O)N1CCN(C(=O)OC[C@@]2(C)Cn3cc([N+](=O)[O-])nc3O2)CC1` registered a melting point of 211 to 212 °C.

Consider `O=C(Nc1ccc(N2CCOCC2)c(F)c1)N1CCC2(CC1)Cn1cc([N+](=O)[O-])nc1O2`, for which the melting point was 240 to 245 °C (dec.).

The compound `O=[N+]([O-])c1cn2c(n1)O[C@H](CN1CCN(Cc3ccc(-c4ccccc4)cc3)CC1)C2` yielded a melting point of 224 to 225 °C.

With `CNC(C1CCN(C(=O)OCc2ccc(Cl)cc2)CC1)[C@]1(C)Cn2cc([N+](=O)[O-])nc2O1` (stereo partly shown), the melting point was in the range of 116.2 to 116.6 °C.

In turn, `CC1(CN2CCN(N=Cc3ccc(OC(F)(F)F)cc3)CC2)Cn2cc([N+](=O)[O-])nc2O1` (stereo not shown) returned a melting point of 189.2 to 190.9 °C.

For `C[C@]1(CN2CCN(C3CCN(c4ccc(OC(F)(F)F)cc4)CC3)CC2)Cn2cc([N+](=O)[O-])nc2O1`, the melting point was 180 to 181.5 °C.

Turning to `Cc1ccc(NC(=O)N2CCN(C[C@@]3(C)Cn4cc([N+](=O)[O-])nc4O3)CC2)cc1`, the melting point was 207 to 210 °C (dec.).
